Each structure is given as a SMILES string.

Series [1] concerns A549 (lung adenocarcinoma). The series can be described thus: MTS cytotoxicity assay, 72 h, A549. It counts as cell-based. Conditions: Homo sapiens, A549, 72 h. The essentials: (§1)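 Treatment ran 72 h at 37 °C under 5% CO2, starting the day after plating, across 50–0.0975 μmol/L (dilution factor 2). Metabolic conversion of MTS was read at 490 nm to obtain IC50.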
In general terms: Tetrazolium assays rely on reduction of a dye to a coloured formazan, in cell work by metabolically active cells.

For series [2], the system named is HCT116 p53–/–. The series can be described thus: MTS cytotoxicity assay, 72 h, HCT116 p53–/–. Type of series: cell-based. Conditions: Homo sapiens, HCT-116, 72 h. The method in brief:
as §1

The test system of series [3] is K562 (chronic myelogenous leukemia). The series can be described thus: MTS cytotoxicity assay, 72 h, K562. Type of series: cell-based. Particulars: Homo sapiens. The essentials:
as §1

The test system of series [4] is CEM-DNR. The series can be described thus: MTS cytotoxicity assay, 72 h, CEM-DNR. It counts as cell-based. Conditions: Homo sapiens.
The test system of series [5] is DU-145 (prostate cancer). The series can be described thus: MTS cytotoxicity assay, 72 h, DU-145. Type of series: cell-based, human. Conditions: Homo sapiens, DU-145, 72 h. The essentials:
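IC50 values come from a tetrazolium (MTS) read-out at 490 nm taken after continuous 72 h exposure to a twofold dilution series from 50 down to 0.0975 μmol/L, with compound added one day after seeding.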

The subject of series [6] is MRC-5 lung fibroblasts. Nature of the series: MTS cytotoxicity assay, 72 h, MRC-5 fibroblasts. Type of series: cell-based, human. Conditions: Homo sapiens, MRC5, 72 h, normal fibroblasts. The essentials: as §1
Series [7] relates to U2OS. Nature of the series: MTS cytotoxicity assay, 72 h, U2OS. Type of series: cell-based. Particulars: Homo sapiens.
The subject of series [8] is K562-TAX. The series can be described thus: MTS cytotoxicity assay, 72 h, K562-TAX. Type of series: cell-based.
In series [9] the test system is CCRF-CEM. Nature of the series: MTS cytotoxicity assay, 72 h, CCRF-CEM. Type of series: cell-based. Conditions: Table 1. The method in brief:
as §1

Series [10] relates to nine cancer and two normal fibroblast derived cell lines. Nature of the series: MTS cytotoxicity assay, whole panel of 11 cell lines. Type of series: cell-based. Conditions: 72 h, statement for whole panel. The procedure: Based on the preliminary results and tests of a larger library of known triterpenoids, a small set of 2-substituted lupane and 18α-oleanane derivatives was designed and synthesized. As the first step, the cytotoxic activity of the synthesized derivatives was assessed using an MTS assay following 72 h of treatment (Table 1). Selected cell lines A549 (lung adenocarcinoma) and DU-145 (prostate cancer) are both dependent on Hh signaling. In addition, K562 (chronic myelogenous leukemia) was included as a cell line sensitive to Hh inhibitors[32] and a type of hematological malignancy with active Hh signaling.[33] MRC-5 lung fibroblasts and BJ human skin fibroblasts cell lines were used to evaluate the toxicity against nontumor cells. Compounds were also tested using the standard panel of other cancer cell lines, as described in our earlier work (Table 1).[27]
The human prostate tumor-derived cell line DU145 was obtained from ATCC (American Type Culture Collection) and cultured in RPMI 1640 (Roswell Park Memorial Institute) medium supplemented with 10% (v/v) fetal bovine serum (FBS). Human prostate tumor-derived LNCaP cells were obtained from ATCC and cultured in RPMI 1640 medium supplemented with 10% FBS. […] Finally, the absorbance at 490 nm was measured using an EnVision multifunctional modular reader (PerkinElmer). The IC50 value was determined using Dotmatics software.

The subject of series [11] is BJ human skin fibroblasts. Nature of the series: MTS cytotoxicity assay, 72 h, BJ fibroblasts. Conditions: Homo sapiens, Skin fibroblast, normal fibroblasts. Type of series: cell-based. The method in brief:
as §1

Series [12] has as its system HCT 116. The series can be described thus: MTS cytotoxicity assay, 72 h, HCT 116. It counts as cell-based. Particulars: Homo sapiens, HCT-116, 72 h. The essentials:
as §1

For the molecule `CC1(C)C(=O)C(c2ccc3cn[nH]c3c2)=C[C@@]2(C)C1CC[C@]1(C)C2CCC2C3[C@H]4OC[C@@]3(CCC4(C)C)CC[C@]21C` (stereo partly drawn) [Compound 4n, 2-(Indazol-6-yl)-19β,28-epoxyolean-1-en-3-one], the IC50 (in general, the midpoint of a concentration-inhibition curve) in [1] (Table 1) worked out at 30 µM; in [1] (full Table S1), 29.5 µM; in series [2] (Table 1) it was 31 µM; in series [2] (full Table S1) it was 30.6 µM; in [3] (Table 1) it was 23 µM; in series [3] (full Table S1), 22.5 µM. The IC50 in series [4] (Table 1) came out at 24 µM; in series [4] (full Table S1), 24.1 µM; in [5] (Table 1) it was 24 µM; in series [5] (full Table S1), 23.9 µM; in series [6] (Table 1) it was 33 µM; in [6] (full Table S1) it was 33.2 µM. In addition, the IC50 in [7] (Table 1) was 25 µM; in series [7] (full Table S1) it was 24.5 µM; in series [8] (Table 1), 16 µM; in series [8] (full Table S1) it was 16.8 µM; in [9] (Homo sapiens, CCRF-CEM, 72 h, MTS) it was 18 µM; in [11] (Table 1) it was 42 µM. The results for the IC50 in [11] (full Table S1), in series [12] (Table 1) and in series [12] (full Table S1) were 42.2 µM, 31 µM and 30.6 µM, respectively. Further, in series [9] (IC50 of CCRF-CEM line vs average of both fibroblasts (BJ and MRC-5)), the “SI (selectivity index)” value amounted to 2.1. The “Cytotoxic activity (IC50) on these 11 cell lines” value in series [10] is given as “weak cytotoxicity”.

Values taken from publication PMC11923649, “Novel C-2 Aromatic Heterocycle-Substituted Triterpenoids Inhibit Hedgehog Signaling in GLI1 Overexpression Cancer Cells” (ACS Omega, 2025).
